Measured values reported in ChEMBL document CHEMBL1137046, “Potent and selective proline derived dipeptidyl peptidase IV inhibitors” (Bioorg Med Chem Lett, 2004).

Assays:
[1] = target: Dipeptidyl peptidase 8 (Homo sapiens, UniProt Q6V1X1); assay: Inhibition of Dipeptidylpeptidase VIII
[2] = Inhibition of Aminopeptidase P
[3] = target: T1, Prolyl endopeptidase FAP (Homo sapiens, UniProt Q12884); assay: Inhibition of Fibroblast activation protein alpha (seprase)
T1 sequence (Q12884 whole entry): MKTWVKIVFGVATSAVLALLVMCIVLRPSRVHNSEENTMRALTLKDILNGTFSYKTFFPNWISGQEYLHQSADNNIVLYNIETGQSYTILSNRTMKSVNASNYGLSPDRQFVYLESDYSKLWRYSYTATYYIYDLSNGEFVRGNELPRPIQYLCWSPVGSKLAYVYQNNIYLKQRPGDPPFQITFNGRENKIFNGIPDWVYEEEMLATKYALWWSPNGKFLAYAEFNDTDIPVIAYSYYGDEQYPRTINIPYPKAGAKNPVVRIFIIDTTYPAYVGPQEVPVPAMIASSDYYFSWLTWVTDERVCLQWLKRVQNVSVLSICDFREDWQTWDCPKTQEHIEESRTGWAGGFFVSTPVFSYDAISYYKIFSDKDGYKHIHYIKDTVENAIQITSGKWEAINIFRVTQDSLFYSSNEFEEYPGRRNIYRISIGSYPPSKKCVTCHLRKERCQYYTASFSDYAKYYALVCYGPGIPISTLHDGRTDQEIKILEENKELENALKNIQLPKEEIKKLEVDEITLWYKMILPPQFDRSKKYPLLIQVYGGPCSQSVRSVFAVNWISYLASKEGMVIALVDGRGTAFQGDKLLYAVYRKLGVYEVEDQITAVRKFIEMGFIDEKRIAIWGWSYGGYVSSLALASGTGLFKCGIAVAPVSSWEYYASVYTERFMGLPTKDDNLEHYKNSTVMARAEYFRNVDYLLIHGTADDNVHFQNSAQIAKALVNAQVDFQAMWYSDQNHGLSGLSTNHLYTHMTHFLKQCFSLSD

[4] = target: T2, Prolyl endopeptidase (Homo sapiens, UniProt P48147); assay: Inhibition of prolyl endopeptidase
T2 sequence (P48147 whole entry): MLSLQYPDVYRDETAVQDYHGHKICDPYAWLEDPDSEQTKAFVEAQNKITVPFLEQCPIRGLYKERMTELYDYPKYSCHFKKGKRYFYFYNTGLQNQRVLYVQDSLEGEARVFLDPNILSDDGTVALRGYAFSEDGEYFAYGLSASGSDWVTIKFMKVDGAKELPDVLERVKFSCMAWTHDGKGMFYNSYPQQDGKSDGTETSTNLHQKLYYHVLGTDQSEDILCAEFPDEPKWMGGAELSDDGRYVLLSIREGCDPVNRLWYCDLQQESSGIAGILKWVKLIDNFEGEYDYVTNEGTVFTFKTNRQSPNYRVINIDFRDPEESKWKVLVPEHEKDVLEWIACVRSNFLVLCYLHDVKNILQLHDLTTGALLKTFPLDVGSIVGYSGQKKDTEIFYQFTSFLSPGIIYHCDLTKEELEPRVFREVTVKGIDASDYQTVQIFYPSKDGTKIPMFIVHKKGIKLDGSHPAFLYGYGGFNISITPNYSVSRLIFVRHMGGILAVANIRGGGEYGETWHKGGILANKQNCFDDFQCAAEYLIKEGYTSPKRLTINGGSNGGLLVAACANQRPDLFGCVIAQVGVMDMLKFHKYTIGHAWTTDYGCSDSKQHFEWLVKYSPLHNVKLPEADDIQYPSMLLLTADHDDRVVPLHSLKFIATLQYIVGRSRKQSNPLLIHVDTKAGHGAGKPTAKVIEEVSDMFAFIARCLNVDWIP

[5] = Half-life in rats ([…]/[…] mg/kg i.v./p.o.); type: ADME, organism-based; details: rat, in vivo, 2 mg/kg
[6] = target: Dipeptidyl peptidase 4 (Homo sapiens, UniProt P27487); assay: Inhibition of human recombinant Dipeptidylpeptidase IV
[7] = target: Dipeptidyl peptidase 2 (Homo sapiens, UniProt Q9UHL4); assay: Inhibition of Quiescent cell prolyl dipeptidase
[8] = target: T3, Xaa-Pro dipeptidase (Homo sapiens, UniProt P12955); assay: Inhibition of prolidase
T3 sequence (P12955 whole entry): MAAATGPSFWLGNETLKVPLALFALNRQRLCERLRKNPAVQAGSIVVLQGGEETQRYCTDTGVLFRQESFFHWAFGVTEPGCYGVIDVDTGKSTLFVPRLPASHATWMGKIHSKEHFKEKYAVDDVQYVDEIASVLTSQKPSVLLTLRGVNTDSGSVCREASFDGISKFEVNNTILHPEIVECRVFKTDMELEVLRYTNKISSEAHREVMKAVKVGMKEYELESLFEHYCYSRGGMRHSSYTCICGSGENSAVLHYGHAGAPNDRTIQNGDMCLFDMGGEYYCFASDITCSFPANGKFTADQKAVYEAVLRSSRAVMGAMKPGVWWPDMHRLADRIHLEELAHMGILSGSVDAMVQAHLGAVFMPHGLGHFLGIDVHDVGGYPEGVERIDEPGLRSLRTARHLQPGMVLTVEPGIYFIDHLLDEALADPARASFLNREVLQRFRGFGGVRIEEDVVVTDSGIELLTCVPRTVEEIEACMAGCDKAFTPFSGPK

[9] = target: Dipeptidyl peptidase 9 (Homo sapiens, UniProt Q86TI2); assay: Inhibition of Dipeptidylpeptidase IX
[10] = Plasma clearance in rats (1/2 mg/kg i.v./p.o.); type: ADME, organism-based; details: rat, 1 mg/kg i.v.
[11] = Oral bioavailability in rat (dose 1 mg/kg i.v. and 2 mg/kg p.o.); type: ADME, organism-based; details: in vivo
[12] = target: Voltage-gated inwardly rectifying potassium channel KCNH2 (Homo sapiens, UniProt Q12809); assay: Inhibition of human Potassium channel HERG
Chain of Voltage-gated inwardly rectifying potassium channel KCNH2 (Q12809 whole entry): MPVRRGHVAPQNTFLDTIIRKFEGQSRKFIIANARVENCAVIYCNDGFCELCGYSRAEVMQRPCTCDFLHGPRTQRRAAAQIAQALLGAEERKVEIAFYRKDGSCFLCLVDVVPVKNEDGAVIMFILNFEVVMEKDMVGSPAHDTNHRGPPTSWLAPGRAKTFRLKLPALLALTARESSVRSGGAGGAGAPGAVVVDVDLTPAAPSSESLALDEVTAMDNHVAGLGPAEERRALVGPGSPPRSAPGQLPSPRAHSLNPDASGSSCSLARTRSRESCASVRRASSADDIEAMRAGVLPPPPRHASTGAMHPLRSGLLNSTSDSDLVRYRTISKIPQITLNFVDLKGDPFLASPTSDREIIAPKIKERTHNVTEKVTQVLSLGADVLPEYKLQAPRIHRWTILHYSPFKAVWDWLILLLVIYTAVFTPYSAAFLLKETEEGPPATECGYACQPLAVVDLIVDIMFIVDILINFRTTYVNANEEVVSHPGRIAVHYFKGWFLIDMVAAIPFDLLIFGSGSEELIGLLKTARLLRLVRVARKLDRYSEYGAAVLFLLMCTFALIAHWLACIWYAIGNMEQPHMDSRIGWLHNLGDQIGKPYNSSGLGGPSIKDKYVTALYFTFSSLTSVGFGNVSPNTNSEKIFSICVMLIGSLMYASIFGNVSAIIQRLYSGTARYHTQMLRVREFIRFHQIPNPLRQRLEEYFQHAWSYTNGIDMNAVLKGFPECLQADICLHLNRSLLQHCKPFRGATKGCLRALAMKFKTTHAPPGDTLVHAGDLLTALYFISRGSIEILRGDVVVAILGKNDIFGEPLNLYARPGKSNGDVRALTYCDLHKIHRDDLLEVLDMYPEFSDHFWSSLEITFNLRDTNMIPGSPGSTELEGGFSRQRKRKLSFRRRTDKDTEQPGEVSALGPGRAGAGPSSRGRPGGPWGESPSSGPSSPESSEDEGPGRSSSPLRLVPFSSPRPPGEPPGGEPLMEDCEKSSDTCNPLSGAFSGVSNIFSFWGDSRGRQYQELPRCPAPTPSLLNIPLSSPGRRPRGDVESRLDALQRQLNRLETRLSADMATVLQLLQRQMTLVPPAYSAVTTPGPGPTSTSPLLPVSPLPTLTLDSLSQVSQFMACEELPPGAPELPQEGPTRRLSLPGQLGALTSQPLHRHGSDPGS

Chain of Dipeptidyl peptidase 8 (Q6V1X1 whole entry): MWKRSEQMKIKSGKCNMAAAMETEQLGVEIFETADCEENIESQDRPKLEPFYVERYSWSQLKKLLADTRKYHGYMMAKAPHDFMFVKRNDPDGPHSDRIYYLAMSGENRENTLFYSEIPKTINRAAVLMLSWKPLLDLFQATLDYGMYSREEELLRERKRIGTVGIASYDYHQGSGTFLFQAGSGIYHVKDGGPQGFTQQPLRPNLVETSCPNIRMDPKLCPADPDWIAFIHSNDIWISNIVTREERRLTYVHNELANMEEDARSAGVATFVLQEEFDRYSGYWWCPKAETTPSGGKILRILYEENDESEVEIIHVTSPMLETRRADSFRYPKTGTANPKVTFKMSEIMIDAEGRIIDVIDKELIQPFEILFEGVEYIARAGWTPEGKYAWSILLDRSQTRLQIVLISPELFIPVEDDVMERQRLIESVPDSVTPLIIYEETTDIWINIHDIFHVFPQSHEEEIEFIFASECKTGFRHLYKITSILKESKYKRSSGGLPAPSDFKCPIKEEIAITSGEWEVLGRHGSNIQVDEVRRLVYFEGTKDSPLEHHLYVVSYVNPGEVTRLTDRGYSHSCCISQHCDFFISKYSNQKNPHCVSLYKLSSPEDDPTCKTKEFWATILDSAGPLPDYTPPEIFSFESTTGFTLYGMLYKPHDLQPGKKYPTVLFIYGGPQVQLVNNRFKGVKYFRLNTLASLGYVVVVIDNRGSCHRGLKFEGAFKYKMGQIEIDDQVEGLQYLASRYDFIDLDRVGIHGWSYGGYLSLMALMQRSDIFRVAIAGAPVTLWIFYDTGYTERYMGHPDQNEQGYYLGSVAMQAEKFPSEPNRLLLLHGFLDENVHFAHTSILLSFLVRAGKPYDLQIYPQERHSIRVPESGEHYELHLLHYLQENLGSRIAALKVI
Chain of Dipeptidyl peptidase 9 (Q86TI2 whole entry): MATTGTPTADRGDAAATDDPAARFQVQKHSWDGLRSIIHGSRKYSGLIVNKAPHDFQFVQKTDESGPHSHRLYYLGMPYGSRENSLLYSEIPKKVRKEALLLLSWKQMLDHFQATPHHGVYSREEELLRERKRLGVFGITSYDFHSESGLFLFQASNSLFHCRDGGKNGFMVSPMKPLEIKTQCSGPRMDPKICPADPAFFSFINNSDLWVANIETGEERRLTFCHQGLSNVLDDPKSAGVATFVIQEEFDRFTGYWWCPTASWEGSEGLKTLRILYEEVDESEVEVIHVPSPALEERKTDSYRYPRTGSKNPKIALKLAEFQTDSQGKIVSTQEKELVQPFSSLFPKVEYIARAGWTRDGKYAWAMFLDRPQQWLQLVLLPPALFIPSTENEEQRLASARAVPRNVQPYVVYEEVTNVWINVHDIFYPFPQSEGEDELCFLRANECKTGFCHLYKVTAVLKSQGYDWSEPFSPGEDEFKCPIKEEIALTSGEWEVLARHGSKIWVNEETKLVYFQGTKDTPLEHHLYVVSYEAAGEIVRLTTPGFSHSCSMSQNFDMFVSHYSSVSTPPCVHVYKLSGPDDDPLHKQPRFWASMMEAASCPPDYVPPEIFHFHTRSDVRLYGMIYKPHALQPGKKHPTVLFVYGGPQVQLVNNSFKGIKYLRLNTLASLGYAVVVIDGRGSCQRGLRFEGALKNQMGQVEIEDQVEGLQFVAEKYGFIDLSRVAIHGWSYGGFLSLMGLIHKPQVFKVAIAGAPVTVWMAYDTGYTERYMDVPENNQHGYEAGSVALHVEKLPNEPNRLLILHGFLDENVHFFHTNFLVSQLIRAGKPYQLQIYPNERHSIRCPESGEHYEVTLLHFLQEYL
Chain of Dipeptidyl peptidase 4 (P27487 whole entry): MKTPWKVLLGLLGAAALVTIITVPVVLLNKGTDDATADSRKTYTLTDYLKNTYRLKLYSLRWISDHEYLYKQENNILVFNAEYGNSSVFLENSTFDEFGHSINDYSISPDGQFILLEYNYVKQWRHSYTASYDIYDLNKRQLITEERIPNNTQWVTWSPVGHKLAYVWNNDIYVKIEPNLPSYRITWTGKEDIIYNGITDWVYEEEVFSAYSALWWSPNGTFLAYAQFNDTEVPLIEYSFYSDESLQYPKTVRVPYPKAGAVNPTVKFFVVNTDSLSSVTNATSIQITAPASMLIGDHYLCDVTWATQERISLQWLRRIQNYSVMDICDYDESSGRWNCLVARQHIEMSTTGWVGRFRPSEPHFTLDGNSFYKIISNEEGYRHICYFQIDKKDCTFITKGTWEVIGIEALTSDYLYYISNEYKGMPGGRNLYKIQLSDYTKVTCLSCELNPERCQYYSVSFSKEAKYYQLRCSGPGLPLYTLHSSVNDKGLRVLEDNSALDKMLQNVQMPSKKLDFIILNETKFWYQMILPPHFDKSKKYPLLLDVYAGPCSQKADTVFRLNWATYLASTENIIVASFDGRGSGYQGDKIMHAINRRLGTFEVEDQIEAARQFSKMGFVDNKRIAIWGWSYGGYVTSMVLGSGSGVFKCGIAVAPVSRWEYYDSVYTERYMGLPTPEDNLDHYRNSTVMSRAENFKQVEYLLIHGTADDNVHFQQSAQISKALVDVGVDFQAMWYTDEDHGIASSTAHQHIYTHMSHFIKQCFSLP

Row | IC50 [1] [µM] | IC50 [2] [µM] | IC50 [3] [µM] | IC50 [4] [µM] | half-life [5] [min] | IC50 [6] [µM] | IC50 [7] [µM] | IC50 [8] [µM] | IC50 [9] [µM] | clearance [10] [mL/min/kg] | bioavailability [11] [%] | Structure (SMILES) | IC50 [12] [µM]
1 | > 100 | > 100 | 48 | > 100 | 21.6 | 0.0082 | > 100 | > 100 | > 100 | 47 | < 1 | CC(C)[C@@H](Oc1ccc(CNC(=O)[C@@H]2CCCN2C(=O)CC(N)Cc2c(F)c(F)c(F)c(F)c2F)cc1)C(=O)O.O=C(O)C(F)(F)F (stereo not given in full) | 
2 | 5.3 | > 100 | > 100 |  | 46.8 | 0.721 | 55 | > 100 | > 100 | 78 | 38 | NC(CC(=O)N1CCC[C@H]1C(=O)NCc1ccc(C(F)(F)F)cc1)Cc1ccccc1F.O=C(O)C(F)(F)F (stereo not given in full) | 
3 | > 100 |  | > 100 |  | 21.6 |  | > 100 |  | > 100 | 47 | < 1 | NC(CC(=O)N1CCC[C@H]1C(=O)NCc1ccc(C(=O)O)cc1)Cc1ccc(F)c(F)c1.O=C(O)C(F)(F)F (stereo not given in full) | 

More lines, now with the values behind:

Row | Structure (SMILES) | IC50 [1] [µM] | IC50 [2] [µM] | IC50 [3] [µM] | IC50 [4] [µM] | half-life [5] [min] | IC50 [6] [µM] | IC50 [7] [µM] | IC50 [8] [µM] | IC50 [9] [µM] | clearance [10] [mL/min/kg] | bioavailability [11] [%] | IC50 [12] [µM]
4 | CC(C)[C@@H](Oc1ccc(CNC(=O)[C@@H]2CCCN2C(=O)CC(N)Cc2cc(F)ccc2F)cc1)C(=O)O.O=C(O)C(F)(F)F (stereo not given in full) | > 100 | > 100 | 21 | 39 | 37.8 | 0.00048 | > 100 | > 100 | 86 | 150 |  | 
5 | COC(=O)Cc1ccc(CNC(=O)[C@@H]2CSCN2C(=O)CC(N)Cc2ccccc2F)cc1.O=C(O)C(F)(F)F (stereo not given in full) | > 100 | > 100 | > 100 | 100 | 6 | 0.087 | 59 | > 100 | > 100 | 140 | 11 | 9.7
6 | NC(CC(=O)N1CCC[C@H]1C(=O)NCCCCc1nn[nH]n1)Cc1ccccc1F.O=C(O)C(F)(F)F (stereo not given in full) | > 100 | > 100 | > 100 |  | 12 | 0.039 | > 100 | > 100 | > 100 | 54 | < 1 | 
7 | NC(CC(=O)N1CSC[C@H]1C(=O)NCc1ccc(CC(=O)O)cc1)Cc1ccccc1F.O=C(O)C(F)(F)F (stereo not given in full) | > 50 |  | > 100 |  | 11.4 |  | > 100 |  |  | 25 | 10 | 
8 | CC(C)[C@@H](Oc1ccc(CNC(=O)[C@@H]2CCCN2C(=O)C(N)C2CCCCC2)cc1)C(=O)O (stereo not given in full) |  |  | > 100 | > 100 |  |  | > 100 |  |  |  |  | > 90
